Laboratory results as given in patent US6924300B2, “Oxyiminoalkanoic acid derivatives” (Takeda Chemical Industries, Ltd., priority 1998, dated 2005).

Structure (SMILES) | melting point
Cc1oc(-c2ccccc2)nc1COc1cccc(CO/N=C(\CCCCC(=O)O)c2ccccc2)c1 [Example 76, E-6-[3-(5-methyl-2-phenyl-4-oxazolylmethoxy)benzyloxyimino]-6-phenylhexanoic acid] | 114 to 115 °C
CCOC(=O)/C(=N\OCc1ccc(OCc2nc(-c3ccccc3)oc2C)cc1)c1ccc(OC)cc1 [Example 19, ethyl Z-2-(4-methoxyphenyl)-2-[4-(5-methyl-2-phenyl-4-oxazolylmethoxy)benzyloxyimino]acetate] | 102 to 103 °C
Cc1oc(-c2ccccc2)nc1COc1ccc(CO/N=C(\CCC(=O)O)c2ccco2)cc1 [Example 72, E-4-(2-furyl)-4-[4-(5-methyl-2-phenyl-4-oxazolylmethoxy)benzyloxyimino]butyric acid] | 124 to 125 °C
Cc1oc(-c2ccccc2)nc1COc1ccc(CO/N=C(\C(=O)O)c2ccc(/C=C/c3ccccc3)cc2)cc1 [Example 31, Z-2-[4-(5-methyl-2-phenyl-4-oxazolylmethoxy)benzyloxyimino]-2-[4-(E-2-phenylethenyl)phenyl]acetic acid] | 194 to 195 °C (dec.)
Cc1oc(-c2ccccc2)nc1COc1ccc(CO/N=C(\CCCCC(=O)O)c2ccccc2)cc1 [Example 60, E-6-[4-(5-methyl-2-phenyl-4-oxazolylmethoxy)benzyloxyimino]-6-phenylhexanoic acid] | 112 to 113 °C
Cc1oc(-c2cccs2)nc1COc1ccc(CO/N=C(\CCC(=O)O)c2ccccc2)cc1 [Example 97, E-4-[4-[5-methyl-2-(2-thienyl)-4-oxazolylmethoxy]benzyloxyimino]-4-phenylbutyric acid] | 142 to 143 °C
C/C(=N\OCc1ccc(OCc2nc(-c3ccccc3)oc2C)cc1)C(=O)O [Example 9, E-2-[4-(5-methyl-2-phenyl-4-oxazolylmethoxy)benzyloxyimino]propionic acid] | 147 to 148 °C
CCOC(=O)/C(=N/OCc1ccc(OCc2nc(-c3ccccc3)oc2C)cc1)c1ccc(Br)cc1 [Example 22, ethyl E-2-(4-bromophenyl)-2-[4-(5-methyl-2-phenyl-4-oxazolylmethoxy)benzyloxyimino]acetate] | 105 to 106 °C
Cc1oc(-c2ccccc2)nc1COc1ccc(CO/N=C(\CCC(=O)O)c2ccccn2)cc1 [Example 64, E-4-[4-(5-methyl-2-phenyl-4-oxazolylmethoxy)benzyloxyimino]-4-(2-pyridyl)butyric acid] | 116 to 117 °C
O=C(O)CC/C(=N\OCc1ccc(OCc2ccccc2)cc1)c1ccccc1 [Example 98, E-4-(4-benzyloxybenzyloxyimino)-4-phenylbutyric acid] | 86 to 87 °C
Cc1oc(-c2ccccc2)nc1COc1ccc(CO/N=C(\CCC(=O)O)c2ccc(Oc3ccccc3)cc2)cc1 [Example 47, E-4-[4-(5-methyl-2-phenyl-4-oxazolylmethoxy)benzyloxyimino]-4-(4-phenoxyphenyl)butyric acid] | 131 to 132 °C
Cc1oc(-c2ccccc2)nc1COc1ccc(CO/N=C(\Cc2ccccc2)C(=O)O)cc1 [Example 6, E-2-[4-(5-methyl-2-phenyl-4-oxazolylmethoxy)benzyloxyimino]-3-phenylpropionic acid] | 143 to 144 °C (dec.)
Cc1oc(-c2ccccc2)nc1COc1ccc(CCCO/N=C(\C(=O)O)c2ccccc2)cc1 [Example 2, Z-2-[3-[4-(5-methyl-2-phenyl-4-oxazolylmethoxy)phenyl]propoxyimino]-2-phenylacetic acid] | 165 to 166 °C (dec.)
O=C(O)CC/C(=N\OCc1ccc(OCc2cn3c(-c4ccccc4)cccc3n2)cc1)c1ccccc1 [Example 57, E-4-[4-(5-phenylimidazo[1,2-a]pyridin-2-ylmethoxy)benzyloxyimino]-4-phenylbutyric acid] | 160 to 161 °C
Cc1oc(-c2ccccc2)nc1COc1cccc(CO/N=C(\CCC(=O)O)c2ccccc2)c1 [Example 77, E-4-[3-(5-methyl-2-phenyl-4-oxazolylmethoxy)benzyloxyimino]-4-phenylbutyric acid] | 108 to 109 °C
O=C(O)CC/C(=N\OCc1ccc(OCc2cn3c(Cl)cccc3n2)cc1)c1ccccc1 [Example 55, E-4-[4-(5-chloroimidazo[1,2-a]pyridin-2-ylmethoxy)benzyloxyimino]-4-phenylbutyric acid] | 160 to 161 °C
CCCC/C(=N\OCc1ccc(OCc2nc(-c3ccccc3)oc2C)cc1)C(=O)O [Example 8, E-2-[4-(5-methyl-2-phenyl-4-oxazolylmethoxy)benzyloxyimino]hexanoic acid] | 112 to 114 °C

Next, values leading:

melting point | Structure (SMILES)
111 to 112 °C | Cc1oc(-c2ccccc2)nc1COc1ccc(CO/N=C(\CCCC(C)(C)C(=O)O)c2ccccc2)cc1 [Example 141, E-2,2-dimethyl-6-[4-(5-methyl-2-phenyl-4-oxazolylmethoxy)benzyloxyimino]-6-phenylhexanoic acid]
116 to 117 °C | Cc1oc(-c2ccccc2)nc1COc1ccccc1CO/N=C(\CCC(=O)O)c1ccccc1 [Example 144, E-4-[2-(5-methyl-2-phenyl-4-oxazolylmethoxy)benzyloxyimino]-4-phenylbutyric acid]
133 to 134 °C | O=C(O)CC/C(=N\OCc1ccc(OCc2ccc3ccccc3n2)cc1)c1ccccc1 [Example 104, E-4-phenyl-4-[4-(2-quinolinylmethoxy)benzyloxyimino]butyric acid]
89 to 90 °C | COc1cc(CO/N=C(\CCC(=O)O)c2ccccc2)cc(OC)c1OCc1nc(-c2ccccc2)oc1C [Example 146, E-4-[3,5-dimethoxy-4-(5-methyl-2-phenyl-4-oxazolylmethoxy)benzyloxyimino]-4-phenylbutyric acid]
90 to 91 °C | Cc1oc(-c2ccccc2)nc1COc1ccc(CO/N=C(\CCCCCCC(=O)O)c2ccc(Cl)cc2)cc1 [Example 123, E-8-(4-chlorophenyl)-8-[4-(5-methyl-2-phenyl-4-oxazolylmethoxy)benzyloxyimino]octanoic acid]
142 to 143 °C (dec.) | Cc1oc(-c2ccccc2)nc1COc1ccc(CO/N=C(/c2ccccc2)C(C)(C)C(=O)O)cc1 [Example 110, Z-2,2-dimethyl-3-[4-(5-methyl-2-phenyl-4-oxazolylmethoxy)benzyloxyimino]-3-phenylpropionic acid]
54 to 57 °C | Cc1oc(-c2ccccc2)nc1COc1ccc(CO/N=C(/CCCCCCC(=O)O)c2ccc(Cl)cc2)cc1 [Example 124, Z-8-(4-chlorophenyl)-8-[4-(5-methyl-2-phenyl-4-oxazolylmethoxy)benzyloxyimino]octanoic acid]
69 to 70 °C | COc1ccc(/C(CCCCCCC(=O)O)=N/OCc2ccc(OCc3nc(-c4ccccc4)oc3C)cc2)cc1 [Example 118, E-8-(4-methoxyphenyl)-8-[4-(5-methyl-2-phenyl-4-oxazolylmethoxy)benzyloxyimino]octanoic acid]
84 to 85 °C | Cc1oc(-c2ccccc2)nc1COc1ccc(CO/N=C(\CCCCCC(=O)O)c2ccccc2)cc1 [Example 115, E-7-[4-(5-methyl-2-phenyl-4-oxazolylmethoxy)benzyloxyimino]-7-phenylheptanoic acid]
130 to 132 °C | Cc1oc(-c2ccccc2)nc1COc1ccc(CO/N=C(\CCCCC(=O)NS(C)(=O)=O)c2ccccc2)cc1 [Example 142, E-N-methanesulfonyl-6-[4-(5-methyl-2-phenyl-4-oxazolylmethoxy)benzyloxyimino]-6-phenylhexanamide]
164 to 165 °C | Cc1oc(-c2ccccc2)nc1COc1ccc(CO/N=C(\CC(N)=O)c2ccccc2)cc1 [Example 111, E-3-[4-(5-methyl-2-phenyl-4-oxazolylmethoxy)benzyloxyimino]-3-phenylpropanamide]
144 to 145 °C | O=C(O)CC/C(=N\OCc1ccc(OCc2coc(-c3ccccc3)n2)cc1)c1ccccc1 [Example 102, E-4-phenyl-4-[4-(2-phenyl-4-oxazolylmethoxy)benzyloxyimino]butyric acid]
76 to 77 °C | O=C(O)CCCCCC/C(=N\OCc1ccc(OCc2noc(-c3ccccc3)n2)cc1)c1ccccc1 [Example 128, E-8-phenyl-8-[4-(5-phenyl-1,2,4-oxadiazol-3-ylmethoxy)benzyloxyimino]octanoic acid]
67 to 69 °C | COC(=O)CC/C(=N\OCc1ccc(OCc2nc(-c3ccco3)oc2C)c(OC)c1)c1ccccc1 [Example 147, methyl E-4-[4-[2-(2-furyl)-5-methyl-4-oxazolylmethoxy]-3-methoxybenzyloxyimino]-4-phenylbutyrate]
112 to 114 °C | COC(=O)CC/C(=N\OCc1ccc(OCc2nc(-c3ccccc3)oc2C)c(OC)c1)c1ccccc1 [Example 149, methyl E-4-[3-methoxy-4-(5-methyl-2-phenyl-4-oxazolylmethoxy)benzyloxyimino]-4-phenylbutyrate]
131 to 132 °C | COc1cc(CO/N=C(\CCC(=O)O)c2ccccc2)ccc1OCc1nc(-c2ccco2)oc1C [Example 148, E-4-[4-[2-(2-furyl)-5-methyl-4-oxazolylmethoxy]-3-methoxybenzyloxyimino]-4-phenylbutyric acid]
79 to 80 °C | Cc1oc(-c2ccccc2)nc1COc1ccc(CO/N=C(\CCCCCCC(=O)O)c2ccc(F)cc2)cc1 [Example 125, E-8-(4-fluorophenyl)-8-[4-(5-methyl-2-phenyl-4-oxazolylmethoxy)benzyloxyimino]octanoic acid]
106 to 108 °C | Cc1oc(-c2cccs2)nc1COc1ccc(CO/N=C(\CCCCCCC(=O)O)c2ccccc2)cc1 [Example 130, E-8-[4-[5-methyl-2-(2-thienyl)-4-oxazolylmethoxy]benzyloxyimino]-8-phenyloctanoic acid]
112 to 113 °C | Cc1oc(-c2ccco2)nc1COc1ccc(CO/N=C(\CCCCC(=O)O)c2ccccc2)cc1 [Example 132, E-6-[4-[2-(2-furyl)-5-methyl-4-oxazolylmethoxy]benzyloxyimino]-6-phenylhexanoic acid]
134 to 135 °C | COc1cc(CO/N=C(\CCC(=O)O)c2ccccc2)ccc1OCc1nc(-c2ccccc2)oc1C [Example 150, E-4-[3-methoxy-4-(5-methyl-2-phenyl-4-oxazolylmethoxy)benzyloxyimino]-4-phenylbutyric acid]
